Experiment [1] is filed under the species Rattus norvegicus. Description: Inhibition of [3H]AMPA binding in rat brain membrane was evaluated. Type of experiment: functional.
Experiment [2] in a line: NMDA Antagonist activity was evaluated; na means no activity. Type of experiment: functional.
Experiment [3] can be described thus: Antagonist activity was evaluated by NMDA-induced excitations of feline spinal neuron; activity is seen. Type of experiment: functional. The settings on record: filed as antagonist.
Experiment [4] in a line: Antagonist activity was evaluated by NMDA-induced excitations of feline spinal neuron; no activity. Type of experiment: functional.
The nature of experiment [5]: NMDA Antagonist activity was evaluated; na means no activity; na means no activity. Type of experiment: functional.
Experiment [6] is filed under the species Rattus norvegicus. The experiment in a line: GDEE-sensitive neuronal excitant (Relative potency) was evaluated; +++. Type of experiment: functional, organism-based.

Active and inactive are the calls of the source. The calls are words filed in the database; no cut-off is given here.

The results in this text go back to ChEMBL document CHEMBL1123001, “Ibotenic acid analogues. Synthesis, molecular flexibility, and in vitro activity of agonists and antagonists at central glutamic acid receptors” (J Med Chem, 1985).

`Cc1c(O)noc1C(C)C(N)C(=O)O` (centres undefined): in the experiment listed under Rattus norvegicus [1], the 50% inhibitory concentration (IC50) (usually the concentration needed to halve the response being measured) was more than 100 µM. In addition, in experiment [2], the Antagonist activity entry was “inactive”.
In the case of `NC(CCc1cc(O)no1)C(=O)O` (centres undefined), the Antagonist activity result in experiment [3] is “Antagonist”. For the same molecule, in the experiment listed under Rattus norvegicus [1], the concentration for half-maximal inhibition (IC50) amounted to 64 µM.
`N[C@@H](CCC(=O)O)C(=O)O` [GLUTAMIC ACID]: the 50% inhibitory concentration (IC50) in the experiment listed under Rattus norvegicus [1] was determined as 1.3 µM. In experiment [2], the Antagonist activity result was “inactive”.
For the molecule `NC(CCCc1cc(O)no1)C(=O)O` (centres undefined), in experiment [3], the Antagonist activity result was “Antagonist”. In the experiment filed under Rattus norvegicus [1], the IC50 is more than 100 µM.
In turn, `Cc1onc(O)c1C[C@@H](N)C(=O)O` came in with an IC50 in the experiment filed under Rattus norvegicus [1] of 4.8 µM. Moreover, the Antagonist activity entry in experiment [2] was “inactive”.
Consider `CC(C)(C)c1onc(O)c1CC(N)C(=O)O` (centres undefined), for which, in experiment [4], the Antagonist activity result was “inactive”. The IC50 in the experiment listed under Rattus norvegicus [1] is 10.6 µM.
As for `Cc1onc(O)c1CC(N)C(=O)O` (racemic) [(R,S)-AMPA], the concentration for half-maximal inhibition (IC50) in the experiment filed under Rattus norvegicus [1] is 0.8 µM. For the same molecule, in experiment [5], the Antagonist activity entry is “inactive”. Besides, the Relative potency entry in the experiment listed under Rattus norvegicus [6] is “Active”.
Regarding `Cc1onc(O)c1C[C@H](N)C(=O)O` [(S)-AMPA], the IC50 in the experiment filed under Rattus norvegicus [1] worked out at 0.6 µM. Besides, the Antagonist activity entry in experiment [2] is “inactive”.
Regarding `NC(Cc1c(O)noc1CBr)C(=O)O` (centres undefined), the IC50 in the experiment listed under Rattus norvegicus [1] came to 0.6 µM. Further, the Antagonist activity result in experiment [2] is “inactive”.
